Results published in patent US9598423B2 (BRISTOL-MYERS SQUIBB COMPANY, priority 2013, dated 2017).

Legend:
CK1δ = CK1δ (Homo sapiens (Human), UniProt P48730); test: CK1δ kinase assay (Caliper LABCHIP electrophoretic separation of fluoresceinated peptide substrate and product); format: biochemical; conditions: 200 pM CK1δ, 50 μM ATP, 1.5 μM peptide substrate, 22 hours at room temperature; read-out: CK1δ (IC50)
Outline: (§1)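 Eleven-concentration compound series in kinase reactions run for 22 hours at room temperature. Terminated with EDTA, with product conversion read by electrophoretic separation. Non-linear regression gave IC50.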

CK1ε = CK1ε (Homo sapiens (Human), UniProt P49674); test: CK1ε kinase assay (Caliper LABCHIP electrophoretic separation of fluoresceinated peptide substrate and product); format: biochemical; conditions: 200 pM CK1ε, 50 μM ATP, 1.5 μM peptide substrate, 22 hours at room temperature; read-out: CK1ε (IC50)
Outline: as §1

CK1ε, sequence (P49674 whole entry): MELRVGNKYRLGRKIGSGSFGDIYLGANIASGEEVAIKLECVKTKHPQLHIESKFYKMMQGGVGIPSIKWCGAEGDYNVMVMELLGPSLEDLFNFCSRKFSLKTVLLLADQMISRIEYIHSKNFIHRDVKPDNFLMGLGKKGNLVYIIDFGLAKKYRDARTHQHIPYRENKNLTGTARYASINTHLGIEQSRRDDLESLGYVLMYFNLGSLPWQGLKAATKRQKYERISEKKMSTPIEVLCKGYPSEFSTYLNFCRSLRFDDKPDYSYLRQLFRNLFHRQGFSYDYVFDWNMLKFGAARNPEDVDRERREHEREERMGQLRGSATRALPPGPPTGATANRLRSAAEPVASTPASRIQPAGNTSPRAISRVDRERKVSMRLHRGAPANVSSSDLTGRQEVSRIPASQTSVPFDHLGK
CK1δ, sequence (P48730 whole entry): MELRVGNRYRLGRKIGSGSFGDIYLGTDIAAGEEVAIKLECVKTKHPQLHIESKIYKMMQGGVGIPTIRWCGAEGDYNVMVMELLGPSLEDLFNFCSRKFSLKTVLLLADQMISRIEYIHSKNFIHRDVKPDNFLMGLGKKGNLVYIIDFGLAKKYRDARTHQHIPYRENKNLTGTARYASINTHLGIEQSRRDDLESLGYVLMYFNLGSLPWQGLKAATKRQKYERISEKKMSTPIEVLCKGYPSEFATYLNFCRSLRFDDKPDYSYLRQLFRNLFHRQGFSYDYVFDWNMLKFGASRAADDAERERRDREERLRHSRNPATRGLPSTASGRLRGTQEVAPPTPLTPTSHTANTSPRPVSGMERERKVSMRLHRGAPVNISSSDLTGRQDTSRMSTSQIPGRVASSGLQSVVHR

Question: Which results are given for `NC(=O)c1c(-c2cccc(F)c2)nn2c1CN(C(=O)Nc1ccc(-c3ccccc3)cc1)CC2` [Compound 62, N^5-([1,1′-Biphenyl]-4-yl)-2-(3-fluorophenyl)-6,7-dihydropyrazolo[1,5-a]pyrazine-3,5(4H)-dicarboxamide]?
Answer: IC50 (CK1δ): 0.01 to 10 nM; IC50 (CK1ε): 0.01 to 10 nM

Question: For `CC(C)(C)c1ccc(NC(=O)N2CCn3nc(-c4cccc(F)c4)c(C(N)=O)c3C2)cc1` [Compound 63, N^5-(4-(tert-Butyl)phenyl)-2-(3-fluorophenyl)-6,7-dihydropyrazolo[1,5-a]pyrazine-3,5(4H)-dicarboxamide], which IC50 (CK1δ) is on record?
Answer: The IC50 was 0.01 to 10 nM.

Question: What about the IC50 (CK1ε) of the same compound?
Answer: Its IC50 is 0.01 to 10 nM.

Question: With `COc1ccc(NC(=O)N2CCn3nc(-c4cccc(F)c4)c(C(N)=O)c3C2)cc1Cl` [Compound 67, N^5-(3-Chloro-4-methoxyphenyl)-2-(3-fluorophenyl)-6,7-dihydropyrazolo[1,5-a]pyrazine-3,5(4H)-dicarboxamide] as the compound, how does the IC50 (CK1δ) read?
Answer: The IC50 was 0.01 to 10 nM.

Question: What about the IC50 (CK1ε) of the same compound?
Answer: The IC50 was 0.01 to 10 nM.

Question: For `NC(=O)c1c(-c2cccc(F)c2)nn2c1CN(C(=O)Nc1cc(F)c(F)c(F)c1)CC2` [Compound 70, 2-(3-Fluorophenyl)-N^5-(3,4,5-trifluorophenyl)-6,7-dihydropyrazolo[1,5-a]pyrazine-3,5(4H)-dicarboxamide], which IC50 (CK1δ) is on record?
Answer: Its IC50 is 0.01 to 10 nM.

Question: And the IC50 (CK1ε)?
Answer: Its IC50 is 0.01 to 10 nM.

Question: How did the IC50 (CK1δ) turn out when `COc1cccc(NC(=O)N2CCn3nc(-c4cccc(F)c4)c(C(N)=O)c3C2)c1` [Compound 73, 2-(3-Fluorophenyl)-N^5-(3-methoxyphenyl)-6,7-dihydropyrazolo[1,5-a]pyrazine-3,5(4H)-dicarboxamide] was run?
Answer: Its IC50 is 0.01 to 10 nM.

Question: And the IC50 (CK1ε)?
Answer: The IC50 was 0.01 to 10 nM.

Question: For `NC(=O)c1c(-c2cccc(F)c2)nn2c1CN(C(=O)Nc1cccc(F)c1)CC2` [Compound 77, N^5,2-Bis(3-fluorophenyl)-6,7-dihydropyrazolo[1,5-a]pyrazine-3,5(4H)-dicarboxamide], which IC50 (CK1δ) is on record?
Answer: The IC50 was 0.01 to 10 nM.

Question: And the IC50 (CK1ε)?
Answer: Its IC50 is 0.01 to 10 nM.

Question: What does the source list for `COc1cc(NC(=O)N2CCn3nc(-c4cccc(F)c4)c(C(N)=O)c3C2)ccc1C(F)(F)F` [Compound 78, 2-(3-Fluorophenyl)-N^5-(3-methoxy-4-(trifluoromethyl)phenyl)-6,7-dihydropyrazolo[1,5-a]pyrazine-3,5(4H)-dicarboxamide]?
Answer: IC50 (CK1δ): 0.01 to 10 nM; IC50 (CK1ε): 0.01 to 10 nM

Question: For `CC12CC3CC(C)(C1)CC(NC(=O)N1CCn4nc(-c5cccc(F)c5)c(C(N)=O)c4C1)(C3)C2` [Compound 81, N^5-(3,5-Dimethyladamantan-1-yl)-2-(3-fluorophenyl)-6,7-dihydropyrazolo[1,5-a]pyrazine-3,5(4H)-dicarboxamide], which IC50 (CK1δ) is on record?
Answer: Its IC50 is 0.01 to 10 nM.

Question: And the IC50 (CK1ε)?
Answer: Its IC50 is 0.01 to 10 nM.

Question: How did the IC50 (CK1δ) turn out when `NC(=O)c1c(-c2cccc(F)c2)nn2c1CN(C(=O)Nc1ccnnc1)CC2` [Compound 82, 2-(3-Fluorophenyl)-N^5-(pyridazin-4-yl)-6,7-dihydropyrazolo[1,5-a]pyrazine-3,5(4H)-dicarboxamide] was run?
Answer: Its IC50 is 0.01 to 10 nM.

Question: And the IC50 (CK1ε)?
Answer: The IC50 was 0.01 to 10 nM.

Question: `NC(=O)c1c(-c2cccc(F)c2)nn2c1CN(C(=O)Nc1ccc(Cl)nc1)CC2` [Compound 85, N^5-(6-Chloropyridin-3-yl)-2-(3-fluorophenyl)-6,7-dihydropyrazolo[1,5-a]pyrazine-3,5(4H)-dicarboxamide] was tested. Which IC50 (CK1δ) did it give?
Answer: The IC50 was 0.01 to 10 nM.

Question: And the IC50 (CK1ε)?
Answer: Its IC50 is 0.01 to 10 nM.

Question: How did the IC50 (CK1δ) turn out when `NC(=O)c1c(-c2cccc(F)c2)nn2c1CN(C(=O)NC13CC4CC(O)(CC(F)(C4)C1)C3)CC2` (stereo not shown) [Compound 94, N^5-(3-Fluoro-5-hydroxyadamantan-1-yl)-2-(3-fluorophenyl)-6,7-dihydropyrazolo[1,5-a]pyrazine-3,5(4H)-dicarboxamide] was run?
Answer: The IC50 was 0.01 to 10 nM.

Question: And the IC50 (CK1ε)?
Answer: Its IC50 is 0.01 to 10 nM.

Question: What does the source list for `CC(C)(C)C(=O)N1CCC(NC(=O)N2CCn3nc(-c4cccc(F)c4)c(C(N)=O)c3C2)CC1` [Compound 98, 2-(3-Fluorophenyl)-N^5-(1-pivaloylpiperidin-4-yl)-6,7-dihydropyrazolo[1,5-a]pyrazine-3,5(4H)-dicarboxamide]?
Answer: IC50 (CK1δ): 0.01 to 10 nM; IC50 (CK1ε): 0.01 to 10 nM

Question: What does the source list for `COC(=O)N1CCC(NC(=O)N2CCn3nc(-c4cccc(F)c4)c(C(N)=O)c3C2)CC1` [Compound 99, Methyl 4-(3-carbamoyl-2-(3-fluorophenyl)-4,5,6,7-tetrahydropyrazolo[1,5-a]pyrazine-5-carboxamido)piperidine-1-carboxylate]?
Answer: IC50 (CK1δ): 0.01 to 10 nM; IC50 (CK1ε): 0.01 to 10 nM

Question: Which results are given for `CC(C)OC(=O)N1CCC(NC(=O)N2CCn3nc(-c4cccc(F)c4)c(C(N)=O)c3C2)CC1` [Compound 100, Isopropyl 4-(3-carbamoyl-2-(3-fluorophenyl)-4,5,6,7-tetrahydropyrazolo[1,5-a]pyrazine-5-carboxamido)piperidine-1-carboxylate]?
Answer: IC50 (CK1δ): 0.01 to 10 nM; IC50 (CK1ε): 0.01 to 10 nM

Question: For `CC(C)(OC(=O)N1CCC(NC(=O)N2CCn3nc(-c4cccc(F)c4)c(C(N)=O)c3C2)CC1)C(F)(F)F` [Compound 101, 1,1,1-Trifluoro-2-methylpropan-2-yl 4-(3-carbamoyl-2-(3-fluorophenyl)-4,5,6,7-tetrahydropyrazolo[1,5-a]pyrazine-5-carboxamido)piperidine-1-carboxylate], which IC50 (CK1δ) is on record?
Answer: The IC50 was 0.01 to 10 nM.

Question: What about the IC50 (CK1ε) of the same compound?
Answer: The IC50 was 0.01 to 10 nM.

Question: Which results are given for `NC(=O)c1c(-c2cccc(F)c2)nn2c1CN(C(=O)NC1CCN(CCC(F)(F)F)CC1)CC2` [Compound 103, 2-(3-Fluorophenyl)-N^5-(1-(3,3,3-trifluoropropyl)piperidin-4-yl)-6,7-dihydropyrazolo[1,5-a]pyrazine-3,5(4H)-dicarboxamide]?
Answer: IC50 (CK1δ): 0.01 to 10 nM; IC50 (CK1ε): 10 to 100 nM

Question: For `COc1cccc(-c2nn3c(c2C(N)=O)CN(C(=O)NC(C)(C)C)CC3)c1` [Compound 109, N^5-(tert-Butyl)-2-(3-methoxyphenyl)-6,7-dihydropyrazolo[1,5-a]pyrazine-3,5(4H)-dicarboxamide], which IC50 (CK1δ) is on record?
Answer: Its IC50 is 0.01 to 10 nM.

Question: And the IC50 (CK1ε)?
Answer: The IC50 was 0.01 to 10 nM.

Question: Which IC50 (CK1δ) does the source give for `CC(C)(C)NC(=O)N1CCn2nc(-c3cncc(F)c3)c(C(N)=O)c2C1` [Compound 113, N^5-(tert-Butyl)-2-(5-fluoropyridin-3-yl)-6,7-dihydropyrazolo[1,5-a]pyrazine-3,5(4H)-dicarboxamide] here?
Answer: The IC50 was 10 to 100 nM.

Question: What about the IC50 (CK1ε) of the same compound?
Answer: The IC50 was 100 to 2000 nM.

Question: `CC(C)(C)NC(=O)N1CCn2nc(-c3cc(Cl)cc(Cl)c3)c(C(N)=O)c2C1` [Compound 117, N^5-(tert-Butyl)-2-(3,5-dichlorophenyl)-6,7-dihydropyrazolo[1,5-a]pyrazine-3,5(4H)-dicarboxamide] was tested. Which IC50 (CK1δ) did it give?
Answer: The IC50 was 0.01 to 10 nM.

Question: What about the IC50 (CK1ε) of the same compound?
Answer: The IC50 was 0.01 to 10 nM.

Question: What does the source list for `CC(C)(C)NC(=O)N1CCn2nc(-c3cnc4ccccc4c3)c(C(N)=O)c2C1` [Compound 119, N^5-(tert-Butyl)-2-(quinolin-3-yl)-6,7-dihydropyrazolo[1,5-a]pyrazine-3,5(4H)-dicarboxamide]?
Answer: IC50 (CK1δ): 0.01 to 10 nM; IC50 (CK1ε): 0.01 to 10 nM

Question: With `CC(C)(C)NC(=O)N1CCn2nc(-c3ccc(F)cc3F)c(C(N)=O)c2C1` [Compound 124, N^5-(tert-Butyl)-2-(2,4-difluorophenyl)-6,7-dihydropyrazolo[1,5-a]pyrazine-3,5(4H)-dicarboxamide] as the compound, how does the IC50 (CK1δ) read?
Answer: The IC50 was 100 to 2000 nM.

Question: And the IC50 (CK1ε)?
Answer: The IC50 was 100 to 2000 nM.

Question: With `CC(C)(C)NC(=O)N1CCn2nc(-c3ccc(Cl)c(Cl)c3)c(C(N)=O)c2C1` [Compound 129, N^5-(tert-Butyl)-2-(3,4-dichlorophenyl)-6,7-dihydropyrazolo[1,5-a]pyrazine-3,5(4H)-dicarboxamide] as the compound, how does the IC50 (CK1δ) read?
Answer: The IC50 was 0.01 to 10 nM.

Question: What about the IC50 (CK1ε) of the same compound?
Answer: The IC50 was 0.01 to 10 nM.

Question: `CC(C)(C)NC(=O)N1CCn2nc(-c3cncc(Cl)c3)c(C(N)=O)c2C1` [Compound 148, N^5-(tert-Butyl)-2-(5-chloropyridin-3-yl)-6,7-dihydropyrazolo[1,5-a]pyrazine-3,5(4H)-dicarboxamide] was tested. Which IC50 (CK1δ) did it give?
Answer: The IC50 was 0.01 to 10 nM.

Question: And the IC50 (CK1ε)?
Answer: Its IC50 is 0.01 to 10 nM.
